The values that follow come from PMC7259601 (PLoS ONE, 2020).

One experiment concerns 19 epigenetic targets. Briefly: Panel of 19 epigenetic targets. The settings on record: 10 μM. The class given is biochemical. The procedure: […]. MAO-A inhibition at 10 μM was 37%, in line with internal data.
A further experiment concerns SAMP8 mice. Briefly: Three Chamber Test (TCT). The settings on record: 0.96 mg/kg/day. The class given is in vivo, mouse. The protocol:
Both male and female mice from the senescence accelerated strain SAMP8 and its control SAMR1 of different ages (see Table S3 for details) were used in these studies. Mice were breed in the animal facilities of the Pharmacy Faculty (University of Barcelona), maintained in a at 22 ± 2 °C controlled temperature in a 12 hr light / dark cycle (lights on at 8:00 am; 300 lux/0 lux) with ad libitum access to food (2018 TEKLAD, Harlan) and water. Male mice were housed individually (males) or in groups of 4-5 animals (females) in plastic colony boxes with a sawdust bedding material. […] SAMR1 mice treated with vehicle were included as a control. All drugs were administered via drinking water and diluted in vehicle. Drug concentration was calculated weekly in function of body weight and corrected in function of drinking water consumption. Cognitive function was evaluated by NORT, social behavior was evaluated by RI and anxiety and motor function were evaluated by EPM and OF. […]
The test was performed in a Plexiglas transparent box with three identical consecutive chambers (15 x 15 x 20 cm). […] This habituation time was monitored to avoid animals showing preference for one of the chambers. […] The time spent in each chamber and the time of direct exploration of the novel mice was measured.
Three Chamber Test (TCT): Mice were recorded for 5 min during habituation and an additional X min to run the test. […]

The target in another experiment is KDM1A (Homo sapiens, UniProt O60341). The experiment can be described thus: MALDI-TOF mass spectrometry of FAD-ORY-2001 adducts. The class given is binding. The protocol: The sample was initially purified by reversed phase chromatography in a ZipTipC18 pipette tip (Millipore, USA) wet using column and equilibrated with 0.1% TFA. The sample was bound to the column by repeated aspiring and dispensing to achieve maximum binding. The ZipTip pipette tip was washed three times with 0.1% TFA and eluted in 4 µl. of 50 % ACN/ 0.1% TFA. 1 µl of eluted sample was loaded onto an AnchorChip MALDI target (Bruker, Germany); 2 µl. of matrix solution (0.3 mg/ml HCCA -alpha-cyano-4-hydroxycinamic acid in EtOH/acetone 2:1) was added and the mixture was allowed to dry at room temperature. The sample preparations were analyzed in an AutoFlex Speed MALDI TOF/TOF mass spectrometer (Bruker, Germany), equipped with a Nd:YAG laser. MS spectra were acquired in Reflector mode, with either positive or negative polarity. MSMS post source-decay fragmentation spectra of selected precursor ions were obtained using the LIFT module (Bruker, Germany).

Experiment [1] concerns isolated Sprague-Dawley rats. The experiment can be described thus: Elevated Plus Maze, rat isolation rearing model. The settings on record: 0.16 or 0.48 mg/kg/day in drinking water, approximately 1 month. The class given is in vivo. The procedure:
Sprague Dawley Rats: Right after the weaning (post natal day 21-23), 72 Sprague-Dawley male rats (Charles River, bred in the UAB Animal facility) were divided in two groups: Control (N = 18), maintained 3-4 animals per cage; Isolated (N = 54), 1 animal per cage ([…] 1291H Eurostandard type III with ECOPURE CHIPS 6 bedding material, Harlan). Animals were maintained at 21 ± 2 °C controlled temperature in a 12 hr light / dark cycle (lights on at 8:00 am) with ad libitum access to food (2014 TEKLAD, Harlan) and water. […] Control animals were treated with vehicle. The administration route was drinking water and the vehicle 1.8% 2-Hydroxypropyl-b-cyclodextrin. Drug concentration was adjusted weekly by body weight and water consumption. During the last week of treatment, all animals were tested in the EPM and, on a different day, in the RI test (N = 12 / group). […]
The EPM consisted of four arms at right angles to each other connected to a central square and maintained elevated 50 cm above the floor. […] The animal was placed facing a closed arm, and its movements were video-recorded for 5 min and analyzed by video-tracking using SMART® (v3.0, PanLab, SLU, Spain).
Elevated Plus Maze (EPM): Movements were video-recorded for 5 min and analyzed by video-tracking using SMART® (v3.0, PanLab, SLU, Spain).

Consider `Nc1nnc(CN[C@@H]2C[C@H]2c2ccc(OCc3ccccc3)cc2)o1` [ORY-2001, vafidemstat], for which the “% inhibition, any of 19 epigenetic targets” value in the experiment with 19 epigenetic targets was at most 15%. For the same molecule, the “time exploring mice introduced in the cage” value in the experiment on SAMP8 mice (12 month old female) is “restored the time SAMP8 spent exploring mice”. For the same molecule, the “preference for the chamber with the novel mice” value in the experiment on SAMP8 mice (female) was “restored the normal preference”. Also, the “adduct formation with KDM1A” value on KDM1A is “adduct formation”. Moreover, the “anxiety and locomotor activity in the EPM” value in experiment [1] is “did not produce any significant effect on anxiety or locomotor activity”.
